Patent publication US10980809B2, “Urea-substituted aromatic ring-linked dioxane-quinazoline and -linked dioxane-quinoline compounds, preparation method therefor and use thereof” (BEIJING SCITECH-MQ PHARMACEUTICALS LIMITED, priority 2017, dated 2021)
pIC50: −log10 of the molar value.

Legend:
VEGFR-2 kinase = VEGFR-2 kinase (Homo sapiens (Human), UniProt P35968); experiment: Test of small molecule compounds for inhibiting the activity of VEGFR-2 kinase; type: biochemical; conditions: class symbols A-D
Sequence of VEGFR-2 kinase (P35968 20-1356): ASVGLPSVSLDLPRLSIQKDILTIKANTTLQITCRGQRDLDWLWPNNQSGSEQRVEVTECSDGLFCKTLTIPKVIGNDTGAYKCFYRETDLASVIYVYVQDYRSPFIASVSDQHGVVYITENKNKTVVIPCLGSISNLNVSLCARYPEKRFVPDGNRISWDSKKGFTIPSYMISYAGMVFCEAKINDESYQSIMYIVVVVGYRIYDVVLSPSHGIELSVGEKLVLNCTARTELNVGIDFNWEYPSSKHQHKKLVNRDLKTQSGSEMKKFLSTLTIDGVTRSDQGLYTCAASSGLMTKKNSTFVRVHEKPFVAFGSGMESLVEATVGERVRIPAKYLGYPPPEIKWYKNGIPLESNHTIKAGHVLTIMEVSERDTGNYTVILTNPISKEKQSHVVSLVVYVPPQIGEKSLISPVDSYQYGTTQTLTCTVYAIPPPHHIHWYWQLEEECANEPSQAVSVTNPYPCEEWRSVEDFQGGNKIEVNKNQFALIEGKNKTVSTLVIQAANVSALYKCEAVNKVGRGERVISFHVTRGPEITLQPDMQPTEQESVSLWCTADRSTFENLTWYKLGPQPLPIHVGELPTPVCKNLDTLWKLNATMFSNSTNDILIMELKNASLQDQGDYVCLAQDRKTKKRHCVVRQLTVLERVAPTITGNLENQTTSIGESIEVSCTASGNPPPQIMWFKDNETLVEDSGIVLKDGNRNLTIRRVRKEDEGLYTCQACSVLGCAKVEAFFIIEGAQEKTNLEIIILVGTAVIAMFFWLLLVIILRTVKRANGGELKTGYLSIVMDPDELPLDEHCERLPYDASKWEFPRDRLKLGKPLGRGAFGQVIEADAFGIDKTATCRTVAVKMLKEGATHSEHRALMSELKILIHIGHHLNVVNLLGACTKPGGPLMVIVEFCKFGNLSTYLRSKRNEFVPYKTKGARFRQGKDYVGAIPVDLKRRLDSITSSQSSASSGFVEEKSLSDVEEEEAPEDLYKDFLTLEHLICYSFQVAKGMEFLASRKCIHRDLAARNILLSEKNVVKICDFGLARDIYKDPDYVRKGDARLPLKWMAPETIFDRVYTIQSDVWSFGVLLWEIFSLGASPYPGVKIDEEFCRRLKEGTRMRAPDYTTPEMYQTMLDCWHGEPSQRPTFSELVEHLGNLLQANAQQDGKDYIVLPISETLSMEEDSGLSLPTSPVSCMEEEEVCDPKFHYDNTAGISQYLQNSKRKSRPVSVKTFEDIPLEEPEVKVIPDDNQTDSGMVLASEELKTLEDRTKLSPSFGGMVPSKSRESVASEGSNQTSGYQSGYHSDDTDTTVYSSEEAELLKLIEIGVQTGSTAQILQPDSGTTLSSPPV
Experimental: Test of Small Molecule Compounds for Inhibiting the Activity of VEGFR-2 Kinase
The test was carried out as follows:
2. 2.5 μl of the gradient-diluted compounds was taken with a transfer pipette to a 384-well plate,
3. Addition of enzyme: 5 μl of 2×VEGFR-2 kinase was taken with a transfer pipette to the corresponding reaction well of the 384-well plate, which was mixed and pre-reacted at room temperature for 30 min,
5. Negative control: 2.5 μl/well 4× substrate/ATP Mix and 7.5 μl 1× Kinase Assay Buffer were added to the wells of the 384-well plate,
Positive control: 2.5 μl/well 4× substrate/ATP Mix, 2.5 μl/well 1× Kinase Assay Buffer containing 4% DMSO, and 5 μl/well 2×VEGFR-2 solution were added to the 384-well plate. The final concentration of DMSO in the reaction system is […],
6. The mixture was mixed well and then centrifuged and reacted at room temperature in dark for 60 min,
9. The 384-well plate was placed into the Envision plate reader and the signal was detected using the appropriate program,

C-RAF = C-RAF (Homo sapiens (Human), UniProt P04049); experiment: Test of small molecule compounds for inhibiting the activity of C-RAF kinase (ADP-Glo)
Sequence of C-RAF (P04049 whole entry): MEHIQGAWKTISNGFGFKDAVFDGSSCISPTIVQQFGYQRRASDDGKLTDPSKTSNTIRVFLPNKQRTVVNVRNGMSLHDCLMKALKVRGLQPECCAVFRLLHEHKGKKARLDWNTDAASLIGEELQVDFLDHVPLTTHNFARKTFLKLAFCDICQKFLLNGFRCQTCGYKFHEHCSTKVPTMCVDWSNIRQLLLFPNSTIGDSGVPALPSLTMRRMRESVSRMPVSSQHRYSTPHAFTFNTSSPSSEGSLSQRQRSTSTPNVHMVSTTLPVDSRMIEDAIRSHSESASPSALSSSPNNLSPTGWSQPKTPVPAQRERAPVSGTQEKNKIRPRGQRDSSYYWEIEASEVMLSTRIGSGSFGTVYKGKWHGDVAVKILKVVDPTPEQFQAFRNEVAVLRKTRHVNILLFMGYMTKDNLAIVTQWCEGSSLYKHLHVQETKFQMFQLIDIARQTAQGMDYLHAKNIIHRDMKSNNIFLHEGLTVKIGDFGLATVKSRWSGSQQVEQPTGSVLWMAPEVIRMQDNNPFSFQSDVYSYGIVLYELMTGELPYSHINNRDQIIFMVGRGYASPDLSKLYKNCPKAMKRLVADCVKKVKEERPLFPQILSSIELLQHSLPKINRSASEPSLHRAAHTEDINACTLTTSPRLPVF
Experimental: (§1) Test of Small Molecule Compounds for Inhibiting the Activity of C-RAF and B-RAF Kinases
(§2) 1. Preparation of test compounds: according to the molecular weight of the compounds, an appropriate volume of DMSO was directly added to dissolve the test compounds. For storing the compound, the concentration of DMSO is 100%, and the final concentration of DMSO in the experimental system is 1%.
(§3) Enzyme: B-RAF: 0.1 ng/l (the final concentration in the reaction system); C-RAF: 0.1 ng/μl (the final concentration in the reaction system)
(§4) HPE: the reaction without enzyme (1% DMSO)
(§5) ZPE: the reaction with enzyme but without compound (1% DMSO)
(§6) a) 1 ul of 10-fold diluted compound or 10% DMSO was added to a 384-well assay plate,
(§7) b) 4 ul enzyme solution or assay buffer was added to the wells of the assay plate,
(§8) c) the plate was centrifuged at 1000 rpm for 1 minute to homogeneous,
(§9) d) 5 ul of ATP-substrate mixture was added to the wells of the assay plate,
(§10) e) the plate was shaked for mixing for 2 minutes,
(§11) f) the plate was incubated at 30° C. for 1 hour,
(§12) g) 10 ul of ADP-Glo reagent was added to the wells of the assay plate, and the plate was incubated for 40 minutes at 27° C.,
(§13) h) 20 ul of kinase assay solution was added to the wells of the plate, and the plate was incubated for 30 minutes at 27° C.,
(§14) i) the chemiluminescent signal was read with Envision.
(§15) The IC50 values of the positive control compound and the test compounds were calculated using the Prism software according to the variable slope of the curve.

B-RAF = B-RAF (Homo sapiens (Human), UniProt P15056); experiment: Test of small molecule compounds for inhibiting the activity of B-RAF kinase (ADP-Glo)
Sequence of B-RAF (P15056 whole entry): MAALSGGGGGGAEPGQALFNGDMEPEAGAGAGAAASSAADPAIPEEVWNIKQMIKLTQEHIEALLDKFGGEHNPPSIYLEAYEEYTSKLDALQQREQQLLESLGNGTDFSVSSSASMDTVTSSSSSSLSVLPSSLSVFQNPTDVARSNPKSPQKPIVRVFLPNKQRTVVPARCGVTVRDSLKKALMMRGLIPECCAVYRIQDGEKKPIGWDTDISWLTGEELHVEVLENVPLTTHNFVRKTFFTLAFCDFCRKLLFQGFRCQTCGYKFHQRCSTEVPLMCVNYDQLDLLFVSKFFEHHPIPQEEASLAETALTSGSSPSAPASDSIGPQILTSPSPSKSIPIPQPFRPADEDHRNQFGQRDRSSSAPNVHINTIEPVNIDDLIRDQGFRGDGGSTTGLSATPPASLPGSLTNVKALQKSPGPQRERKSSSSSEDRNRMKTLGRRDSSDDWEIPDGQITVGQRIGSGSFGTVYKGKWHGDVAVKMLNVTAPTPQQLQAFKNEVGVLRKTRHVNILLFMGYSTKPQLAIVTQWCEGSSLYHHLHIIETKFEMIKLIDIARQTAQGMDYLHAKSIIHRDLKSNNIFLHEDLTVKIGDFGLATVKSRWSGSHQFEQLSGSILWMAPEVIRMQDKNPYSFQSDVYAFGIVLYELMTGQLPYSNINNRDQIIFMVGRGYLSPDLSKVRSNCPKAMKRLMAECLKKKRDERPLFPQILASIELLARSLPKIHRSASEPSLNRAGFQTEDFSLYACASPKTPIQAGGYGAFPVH
Experimental: as §1, §2, §3, §4, §5, §6, §7, §8, §9, §10, §11, §12, §13, §14, §15

Compound | pIC50 (VEGFR-2 kinase) | pIC50 (C-RAF) | pIC50 (B-RAF)
O=C(Nc1ccc(Oc2ncnc3cc(OCCCN4CCOCC4)c4c(c23)OCCO4)cc1)Nc1ccc(Cl)c(C(F)(F)F)c1 [Example 66, 1-(4-chloro-3-(trifluoromethyl)phenyl)-3-(4-((5-(3-morpholinopropoxy)-2,3-dihydro-[1,4]dioxino[2,3-f]quinazolin-10-yl)oxy)phenyl)urea] | > 7.30 | 6.30 to 6.70 | 6.30 to 6.70
O=C(Nc1ccc(Oc2ncnc3cc(OCCCN4CCCC4)c4c(c23)OCCO4)cc1Cl)NC1CC1 [Example 62, 1-(2-chloro-4-((5-(3-(pyrrolidin-1-yl)propoxy)-2,3-dihydro-[1,4]dioxino[2,3-f]quinazolin-10-yl)oxy)phenyl)-3-cyclopropylurea] | > 7.30 | < 6.00 | < 6.00
COCCOc1cc2ncnc(Oc3ccc(NC(=O)NC4CC4)c(Cl)c3)c2c2c1OCCO2 [Example 45, 1-(2-chloro-4-((5-(2-methoxyethoxy)-2,3-dihydro-[1,4]dioxino[2,3-f]quinazolin-10-yl)oxy)phenyl)-3-cyclopropylurea] | > 7.30 | < 6.00 | < 6.00
COCCOc1cc2ncnc(Oc3ccc(NC(=O)Nc4cccc(OC)c4)cc3)c2c2c1OCCO2 [Example 50, 1-(4-((5-(2-methoxyethoxy)-2,3-dihydro-[1,4]dioxino[2,3-f]quinazolin-10-yl)oxy)phenyl)-3-(3-methoxyphenyl)urea] | > 7.30 | < 6.00 | < 6.00
O=C(Nc1ccc(Oc2ncnc3cc(OCCCN4CCOCC4)c4c(c23)OCCO4)cc1)Nc1cc(C(F)(F)F)ccc1F [Example 65, 1-(2-fluoro-5-(trifluoromethyl)phenyl)-3-(4-((5-(3-morpholinopropoxy)-2,3-dihydro-[1,4]dioxino[2,3-f]quinazolin-10-yl)oxy)phenyl)urea] | > 7.30 | […] | […]
COc1cc2ncnc(Nc3ccc(NC(=O)Nc4ccc(Cl)c(C(F)(F)F)c4)c(Cl)c3)c2c2c1OCCO2 [Example 11, 1-(2-chloro-4-((5-methoxy-2,3-dihydro-[1,4]dioxino[2,3-f]quinazolin-10-yl)amino)phenyl)-3-(4-chloro-3-(trifluoromethyl)phenyl)urea] | > 7.30 | […] | […]
O=C(Nc1ccc(Oc2ncnc3cc(OCCCN4CCOCC4)c4c(c23)OCCO4)c(F)c1)Nc1ccc(Cl)c(C(F)(F)F)c1 [Example 68, 1-(4-chloro-3-(trifluoromethyl)phenyl)-3-(3-fluoro-4-((5-(3-morpholinopropoxy)-2,3-dihydro-[1,4]dioxino[2,3-f]quinazolin-10-yl)oxy)phenyl)urea] | > 7.30 | 6.00 to 6.30 | 6.30 to 6.70
O=C(Nc1ccc(Oc2ncnc3cc(OCCCN4CCOCC4)c4c(c23)OCCO4)cc1Cl)NC1CC1 [Example 64] | > 7.30 | < 6.00 | < 6.00
COCCOc1cc2ncnc(Oc3ccc(NC(=O)Nc4ccc(F)cc4F)c(F)c3)c2c2c1OCCO2 [Example 49, 1-(2,4-difluorophenyl)-3-(2-fluoro-4-((5-(2-methoxyethoxy)-2,3-dihydro-[1,4]dioxino[2,3-f]quinazolin-10-yl)oxy)phenyl)urea] | > 7.30 | < 6.00 | < 6.00
COc1cc2ncnc(Nc3ccc(NC(=O)Nc4cccc(S(C)(=O)=O)c4)c(Cl)c3)c2c2c1OCCO2 [Example 17, 1-(2-chloro-4-((5-methoxy-2,3-dihydro-[1,4]dioxino[2,3-f]quinazolin-10-yl)amino)phenyl)-3-(3-methylsulfonylphenyl)urea] | > 7.30 | < 6.00 | < 6.00
COCCOc1cc2ncnc(Nc3ccc(NC(=O)Nc4ccc(Cl)c(C(F)(F)F)c4)c(Cl)c3)c2c2c1OCCO2 [Example 42, 1-(2-chloro-4-((5-(2-methoxyethoxy)-2,3-dihydro-[1,4]dioxino[2,3-f]quinazolin-10-yl)amino)phenyl)-3-(4-chloro-3-(trifluoromethyl)phenyl)urea] | > 7.30 | 6.00 to 6.30 | > 6.70
O=C(Nc1ccc(Oc2ncnc3cc(OCCCN4CCOCC4)c4c(c23)OCCO4)c(F)c1)Nc1cc(C(F)(F)F)ccc1F [Example 67, 1-(3-fluoro-4-((5-(3-morpholinopropoxy)-2,3-dihydro-[1,4]dioxino[2,3-f]quinazolin-10-yl)oxy)phenyl)-3-(2-fluoro-5-(trifluoromethyl)phenyl)urea] | > 7.30 | 6.00 to 6.30 | 6.30 to 6.70
O=C(Nc1ccc(Oc2ncnc3cc(OCCN4CCOCC4)c4c(c23)OCCO4)cc1)Nc1ccc(Cl)c(C(F)(F)F)c1 [Example 72, 1-(4-chloro-3-(trifluoromethyl)phenyl)-3-(4-((5-(2-morpholinoethoxy)-2,3-dihydro-[1,4]dioxino[2,3-f]quinazolin-10-yl)oxy)phenyl)urea] | 5.30 to 6.30 |  | 
COc1cc2ncnc(Oc3ccc(NC(=O)Nc4ccc(Cl)c(C(F)(F)F)c4)c(F)c3)c2c2c1OCCO2 [Example 19, 1-(4-chloro-3-(trifluoromethyl)phenyl)-3-(2-fluoro-4-((5-methoxy-2,3-dihydro-[1,4]dioxino[2,3-f]quinazolin-10-yl)oxy)phenyl)urea] | > 7.30 | > 6.70 | > 6.70
O=C(Nc1ccc(Oc2ncnc3cc(OC4CCOC4)c4c(c23)OCCO4)cc1)Nc1cc(C(F)(F)F)ccc1F (stereo not shown) [Example 80, 1-(2-fluoro-5-(trifluoromethyl)phenyl)-3-(4-((5-((tetrahydrofuran-3-yl)oxy)-2,3-dihydro-[1,4]dioxino[2,3-f]quinazolin-10-yl)oxy)phenyl)urea] | > 7.30 |  | 
COCCOc1cc2ncnc(Oc3ccc(NC(=O)Nc4cc(C(F)(F)F)ccc4F)c(F)c3)c2c2c1OCCO2 [Example 57, 1-(2-fluoro-4-((5-(2-methoxyethoxy)-2,3-dihydro-[1,4]dioxino[2,3-f]quinazolin-10-yl)oxy)phenyl)-3-(2-fluoro-5-(trifluoromethyl)phenyl)urea] | > 7.30 |  | 
COCCOc1cc2ncnc(Nc3ccc(NC(=O)Nc4ccccn4)c(Cl)c3)c2c2c1OCCO2 [Example 36, 1-(2-chloro-4-((5-(2-methoxyethoxy)-2,3-dihydro-[1,4]dioxino[2,3-f]quinazolin-10-yl)amino)phenyl)-3-(pyridin-2-yl)urea] | < 5.30 |  | 
COCCOc1cc2ncnc(Oc3ccc(NC(=O)Nc4ccc(Cl)c(C(F)(F)F)c4)cc3F)c2c2c1OCCO2 [Example 59, 1-(4-chloro-3-(trifluoromethyl)phenyl)-3-(3-fluoro-4-((5-(2-methoxyethoxy)-2,3-dihydro-[1,4]dioxino[2,3-f]quinazolin-10-yl)oxy)phenyl)urea] | > 7.30 |  | 
O=C(Nc1ccc(Oc2ncnc3cc(OCCCN4CCOCC4)c4c(c23)OCCO4)cc1)Nc1ccc(F)c(C(F)(F)F)c1 [Example 75, 1-(4-fluoro-3-(trifluoromethyl)phenyl)-3-(4-((5-(3-morpholinopropoxy)-2,3-dihydro-[1,4]dioxino[2,3-f]quinazolin-10-yl)oxy)phenyl)urea] | > 7.30 |  | 
COc1cc(NC(=O)Nc2ccc(Oc3ncnc4cc(OC)c5c(c34)OCCO5)c(Cl)c2)ccn1 [Example 26, 1-(3-chloro-4-((5-methoxy-2,3-dihydro-[1,4]dioxino[2,3-f]quinazolin-10-yl)oxy)phenyl)-3-(2-methoxypyridin-4-yl)urea] | > 7.30 |  | 
